Source: a melting point compilation (Tetko et al.; mined from patent text by program, amines drawn as free bases though some values may be those of a salt)

Row | melting point [°C] | Compound
1 | 103 to 104 | O=[N+]([O-])c1ccc(Sc2ncccn2)cc1
2 | 85 to 87 | CN1C(=O)C(c2cccc(OCc3ccccc3)c2)(c2cnn(CC(F)(F)F)c2)N=C1N (stereo not drawn)
3 | 195 to 197 | CCOC(=O)c1ncc2[nH]c3ccc(P(=O)(CC)CC)cc3c2n1
4 | 270 to 272 | COc1cc(C(=O)O)ccc1Cn1cc(/C=C/C(=O)N(C)C)c2ccc(/C=C/C(=O)N(C)C)cc21
5 | 182 to 184 | COCCOc1ccc(/C=C/C(=O)O)c(Oc2ncc(Cl)cc2Cl)c1
6 | 143 to 145 | CC(C(=O)O)c1cccc(Sc2ccccc2Cl)c1O (stereo not drawn)
7 | 202 | O=C(N[C@H]1CC[C@H](CCN2CCN(c3nccc4c3CCO4)CC2)CC1)C1CCC1
8 | 97 to 99 | CCOC(=O)[C@H](NS(=O)(=O)c1ccc(C)cc1)[C@@H]1CO[C@@H](c2ccccc2)C1
9 | 192 to 194 | CC(=O)c1c[nH]cc1-c1cccc(Cl)c1Cl
10 | 199 to 201 | O=C(O)Cc1c(C(=O)c2ccc(Br)cc2)[nH]c2cc(Cl)ccc12
11 | 223 to 225 | COc1cc(S(C)(=O)=O)ccc1-c1nc2cc3c(cc2[nH]1)N(C(C)=O)CC3(C)C
12 | 117 | CCCCOc1cc(/C=C(\OCC)C(=O)O)ccc1OCCc1ccc(OS(C)(=O)=O)cc1
13 | 231 to 232 | O=C(NC(=O)c1c(F)cccc1F)Nc1cc(Cl)c(Cl)c(Cl)c1
14 | > 200 | COC(=O)CCc1ccc(N2CCN(c3ccc(CCN)cc3)C2=O)cc1
15 | 106 to 108 | Cc1ccc2c(c1)CN(C)C(c1ccc(C(C)(C)C)cc1)C2 (stereo not drawn)
16 | 172 to 173 | O=C(NC(Cc1ccccc1)C(=O)O)OCc1ccc(C#Cc2ccccc2)cc1 (stereo not drawn)
17 | 133 to 135 | COC(=O)c1ccc2nc3c(nc2c1)SC(C#N)=C(C#N)S3
18 | 197 to 200 | CCOc1cc(OCC)nc(-c2nsc3ccc(-n4c(=O)cc(C(F)(F)F)n(C)c4=O)cc23)n1
19 | 251 to 253 | CC(C)(C)c1nc(Nc2nc(C(=O)O)cs2)nc(C(C)(C)C)c1O
20 | 159 to 162 | COC(=O)c1c(C2=NC(C)(C(C)C)C(=O)N2)cccc1[N+](=O)[O-] (stereo not drawn)
21 | 126 to 129 | CCOC(=O)c1cnn(-c2ccc(C=O)cc2)n1
22 | 115 to 116 | Nc1cc(N2CCCC2)c(F)cc1[N+](=O)[O-]
23 | 115 to 116 | CC1=C(C(=O)OCCN(C)Cc2ccc(Cl)cc2)C(c2cccc([N+](=O)[O-])c2)C(C(=O)OCC2CC2)=C(C)N1 (stereo not drawn)
24 | 151 to 153 | NC(=O)Cc1ccc(-c2ccc(C(CC3CCOCC3)c3ccc(S(=O)(=O)C4CC4)cc3)[nH]2)nc1 (stereo not drawn)

Row | melting point [°C] | Compound
25 | 115 to 118 | Cc1cccc(C)c1N(Cn1cncn1)C(=O)CCl
26 | 142 to 144 | Cc1cccc(-c2nn3c(c2-c2ccc(F)cc2)CC[C@H]3CO)n1
27 | 182 to 183 | O=C(c1ccc2n1Cc1ccccc1N(S(=O)(=O)c1ccc(Br)cc1)C2)C(Cl)(Cl)Cl
28 | 62 to 65 | COc1ccc(CCCc2c[nH]c(C(=O)N3CCC[C@@H]3C(=O)N[C@H]3CC(=O)O[C@@H]3OCc3ccccc3)n2)cc1
29 | 176 to 180 | O=C(O)CCC(=O)c1ccc2c(c1)CNC(=O)N2
30 | 127 to 129 | COC(=O)C1=Cc2cc([N+](=O)[O-])ccc2N(C)CCC1
31 | 164 to 167 | CCOC(=O)Cn1cc2c(n1)-c1ccccc1N(C(=O)c1ccc(NC(=O)c3ccc(Cl)cc3Cl)cc1)CC2
32 | 143 to 144 | CCOP(=O)(/C=C/C=C/c1cn(-c2ccccc2)nc1OCc1ccc(OCc2nc(-c3ccco3)oc2C)c(OC)c1)OCC
33 | 167 to 169 | COc1ccc(F)c(C(N)=O)c1F
34 | 196 to 198 | Clc1cccc(Cn2cnc3c(-c4ccco4)nc(Cl)nc32)c1
35 | 118 to 119 | CN(C)CC1CN(c2ccccc2)NC1=O (stereo not drawn)
36 | 110 to 112 | CCCCCCCCCCCCCCCCCCOc1cc(C(=O)N(CC(=O)O)CC(=O)O)cc([N+](=O)[O-])c1
37 | 216 to 217 | COCCN(c1cccc2cc(C(=O)O)[nH]c12)S(=O)(=O)c1cccs1
38 | 159 to 161 | O=C1Nc2ccc(C(F)(C(F)(F)F)C(F)(F)F)cc2CN1NCc1cccnc1
39 | 196 to 198 | O=C1Nc2cc(C(F)(F)F)ccc2C1=O
40 | 234 to 235 | CN(C1CCN(CC(C)(C)O)CC1)S(=O)(=O)c1ccc(Nc2nccc(Nc3ccc(F)c(F)c3)n2)cc1
41 | 297 to 299 | O=C(NCc1ccc(Cl)cc1)c1cnc2ccc(I)cc2c1O
42 | 202 to 203 | O=C(O)c1ccc(OCCCCn2c(-c3ccccc3)nc(-c3ccccc3)c2-c2ccccc2)cc1
43 | 213 to 215 | COC(=O)NC1=NCC(c2ccccc2Br)CN1 (stereo not drawn)
44 | 190 | COc1cc2c(cc1Nc1ncc(Cl)c(N[C@H]3[C@@H](C(N)=O)[C@@H]4C=C[C@H]3C4)n1)CCN(CC(=O)N1CCN(C)CC1)CC2
45 | 133 to 140 | N#Cc1ccccc1-c1ccc2[nH]c(Cc3ccccc3)nc2c1
46 | 245 to 247 | CC(C)(C)c1ccc(Oc2nc(Nc3cccc(C(=O)O)c3)nc(Oc3ccccc3)n2)cc1
47 | 231 to 233 | CC(C)NC(=O)NOCc1nc2c(N)nc3ccccc3c2n1CC(C)(C)O
48 | 192 | COc1cccc(C2=C(C#N)C(c3ccccc3OC)c3c[nH]nc3N2)c1 (stereo not drawn)

Row | melting point [°C] | Compound
49 | 178 to 180 | CCCCc1nc2cccc(C(=O)O)c2n1Cc1ccc(-c2ccccc2-c2nc(=S)o[nH]2)cc1
50 | 200 to 212 | CCOC(=O)c1nc2sc(CC)c([N+](=O)[O-])c2c(=O)[nH]1
51 | 119 to 120 | COc1cc(OC)nc(Oc2cccc3c2C(=O)OC3OC(C)=O)n1 (stereo not drawn)
52 | > 250 | CN(C)c1nc2cc(NC(=O)c3c(C(=O)O)cnn3C)ccn2n1
53 | 220 to 222 | CC(=O)NC[C@H]1CN(c2ccc(N3CCC(n4cc(C(C)=O)nn4)CC3)c(F)c2)C(=O)O1
54 | 154 to 158 | CCCCOC(=O)C(CC(=O)O)NCCCN(C)C (stereo not drawn)
55 | 242 to 245 | Cc1nnc2ccc(-c3cccc(NC(=O)C4CCC4)c3)nn12
56 | 74 to 76 | Fc1cc(C(Cl)(Cl)Cl)c(Cl)c(C(Cl)Cl)c1Cl
57 | 164 to 165 | CC(=O)NC(=O)c1ccc(OCCn2ccnc2)cc1
58 | 177 to 178 | COC(=O)C1=C(C)NC(CO)=C(C(=O)OC)C1c1ccccc1C#N (stereo not drawn)
59 | 205 to 207 | Cc1nc(-c2ccccc2)[nH]c(=O)c1C
60 | 78.6 to 79.7 | CC1(C)C=C(C(=O)c2ccc3c(c2)CCN(C(N)=O)C3)C(C)(C)CC1
61 | 106 to 109 | CN1COC(CC23CCC(c4ccccc42)c2ccccc23)C1 (stereo not drawn)
62 | 71 to 73 | CCOC(=O)c1ccc(C#Cc2ccc(C)cc2)c(OC)c1
63 | 184 to 188 | Cc1ccc(S(=O)(=O)Nc2cccc3c2Nc2ccc(O)cc2CO3)s1
64 | 129 to 131 | O=CN(O)C(CS(=O)(=O)c1ccccc1Oc1ccc(OC(F)(F)F)cc1)C(CO)CO (stereo not drawn)
65 | 165 to 167 | CCOCc1nc2c(N)nc3ccccc3c2n1CC1(O)CCN(C(=O)OCC)CC1
66 | 135 to 137 | Cc1noc(C)c1Cn1cc(NC(=O)c2ccccn2)cn1
67 | 45 to 53 | COc1ccc(CONC(=O)[C@@H](C(C)C)N(Cc2cccnc2)S(=O)(=O)c2ccc(OC)cc2)cc1
68 | > 230 | COc1ccc2c(c1)c(CC1=CC(=O)N=N1)c(C)n2C(=O)c1ccc(Cl)cc1
69 | 120 to 125 | COc1cccc(N(c2ccccc2)c2ccc(-c3ccc(N(c4ccccc4)c4cccc(OC)c4)cc3)cc2)c1
70 | 175 to 177 | COC(=O)c1ccc2cc(CCc3cc4ccc(C(=O)OC)cc4o3)oc2c1
71 | 145 to 149 | CCOC(=O)Cc1cccc(Oc2ccccc2Cl)c1NS(C)(=O)=O
72 | 195 to 200 | Cc1cc(C#N)sc1-c1ccc2c(c1)C(C)(C)OC(=O)N2

Row | melting point [°C] | Compound
73 | 185 to 187 | Cn1cc(C(=O)O)c([N+](=O)[O-])n1
74 | 198 to 201 | O=C(NC(NC(=S)Nc1ccccc1)C(F)(F)F)c1ccc(Cl)cc1 (stereo not drawn)
75 | 57 to 60 | CCCCCCOc1nc(N)c2ncn(C3CCCCC3)c2n1
76 | 50 | NCc1cc(-c2ccccc2)no1
77 | 202 to 204 | Fc1ccc(C(CCCN2CCN(c3n[nH]c4cc(Cl)ccc34)CC2)c2ccc(F)cc2)cc1
78 | 98 | O=S(=O)(On1nnc2ccccc21)c1cccnc1
79 | 147 to 149 | COc1ccc(C2(O)CCS(=O)(=O)CC2)cc1OC1CCCC1
80 | 125 to 127 | COc1ccc(-n2cnc3ccc(-c4nnc(CCc5cccc(C#N)c5)o4)cc32)cc1
81 | 150 to 151 | Nc1cnnc(Cl)c1Cl
82 | 84 to 86 | OC(=S)c1cccnc1
83 | 131 to 132 | CCOC(=O)COc1ccc(C(=O)Nc2ccccc2S(=O)(=O)c2ccccc2C#N)cc1
84 | 174 to 176 | Cc1ccccc1NC(=O)c1cc(Br)c(OCc2ccccc2)cc1OCc1ccccc1
85 | 181 to 182 | NC(=O)N(O)CCNC(=O)c1cc2ccccc2o1
86 | 106 to 107 | CCOC(=O)Cc1cccc(Oc2ccccc2)c1NC(C)=O
87 | 68 to 72 | COc1ccc2c(c1)c(Cc1nc(-c3csc4ccccc34)cs1)c(C)n2C(=O)c1ccc(Cl)cc1
88 | 71 | COc1cc(N)ccc1OC[C@H](O)C1CC1
89 | > 260 | CC(=O)Nc1ccc(S(=O)(=O)Nc2cccc3[nH]ccc23)cc1
90 | 154 to 155 | O=C(NCCCCCNC(=O)c1ccc(OC(F)(F)F)cc1)c1ccc(OC(F)(F)F)cc1
91 | 206 to 210 | O=C(O)c1cc(=O)c2cc(F)ccc2[nH]1
92 | 285 | Cc1cc(-c2ccc(C(F)(F)F)cc2)cn2c(-c3cc(-c4ncon4)c(S(N)(=O)=O)s3)cnc12
93 | 105 to 107 | CN=Cc1ccc2c(Br)c(OC)ccc2c1
94 | 137 to 138 | Cc1ccc(C2(O)CCNCC2)cc1
95 | 284 to 287 | CCOC(=O)Cn1c(-c2cc3c(cc2N)OCO3)nc2ccccc21

Row | Compound | melting point [°C]
96 | CC12CC(=CO)C(=O)C=C1CCC1C2CCC2(C)C1C=CC2(C)O (stereo not drawn) | 176
97 | C=Cn1cc(C(=O)O)c(=O)c2cc(F)c(N3CCNCC3)cc21 | 248 to 251
98 | O=C1CN=C(c2ccccc2Cl)c2ccsc2N1 | 221 to 223
